Measured values from patent US20210386750A1, “METHODS AND MATERIALS FOR TREATING CANCER” (Mayo Foundation for Medical Education and Research, priority 2018, published 2021).
Entries after “also recorded” stand apart in the source; their conditions may differ.

Key:
OVCAR-8 cells = assay: Clonogenic (colony formation) assay in OVCAR-8 cells; conditions: for Sensitivity of BRCA1-depleted cells to the agent versus control luciferase siRNA cells: OVCAR-8, BRCA1 siRNAs, colony formation 8-10 days (FIG. 4A, 14, 22A); for Sensitization to the agent by NNMT overexpression: OVCAR-8 clones stably expressing Myc-DDK-NNMT versus empty vector, 8-10 days (FIG. 16, 24)
Protocol: A portion of the cells used in A and C were subjected to colony formation assays using olaparib, a PARP inhibitor (as a positive control for HR deficiency).
(A-C) OVCAR-8 and PEA1 cells were transfected with control luciferase (siLuc) or BRCA1 siRNAs. 48 hours later, the cells were trypsinized, immunoblotted for BRCA1 and HSP90 (bottom panels), and subjected to colony formation assays.
The cells were cultured for 8-10 days to allow colony formation.

PEA1 cells = assay: Clonogenic (colony formation) assay in PEA1 cells; conditions: PEA1, BRCA1 siRNAs, colony formation 8-10 days (FIG. 4B, 14, 22B)
Protocol: OVCAR-8 (A) and PEA1 (B) cells were transfected with control luciferase (Luc) or BRCA1 siRNAs. 48 hours later, the cells were trypsinized, plated in 6-well plates, and subjected to colony formation assays. The indicated concentrations of ceritinib was added 12 hours after plating.

[1] = system: HCT-116 colon cancer cells; assay: Colony formation assay in HCT-116 colon cancer clones (empty vector or Myc-DDK-NNMT); format: cell-based; conditions: HCT-116 Myc-NNMT clones #4, #8, #22 versus empty vector, 8-10 days, n=1 (FIG. 26)
Protocol: Clones of HCT-116 colon cancer cells stably transfected with empty vector (pcDNA3) or the Myc-DDK-NNMT expression plasmid (Myc-NNMT Clone #4, #8, #22) were plated as single cells, allowed to adhere for 12 hours, and then treated with ceritinib. […] Data are means±SEM from triplicate wells, n=1 experiment.
Clonogenic assays were performed as described elsewhere (see, e.g., Wagner et al., Mol. Pharmacol., 76:208-14 (2009)).

## O=C(Oc1cccc(F)c1OC(=O)c1cccc(O)c1)c1cccc(O)c1 [WZB117]
OVCAR-8 cells
  Sensitivity of BRCA1-depleted cells to the agent versus control luciferase siRNA cells: sensitized
PEA1 cells
  Sensitivity of BRCA1-depleted cells to the agent versus control luciferase siRNA cells: sensitized

## Cc1cc(Nc2ncc(Cl)c(Nc3ccccc3S(=O)(=O)C(C)C)n2)c(OC(C)C)cc1C1CCNCC1 [ceritinib]
OVCAR-8 cells
  Sensitivity of BRCA1-depleted cells to the agent versus control luciferase siRNA cells: sensitizes
  Sensitization to the agent by NNMT overexpression: sensitizes
[1]
  Sensitization to the agent by NNMT overexpression: sensitizes
PEA1 cells
  Sensitivity of BRCA1-depleted cells to the agent versus control luciferase siRNA cells: sensitizes

## O=C(c1cc(Cc2n[nH]c(=O)c3ccccc23)ccc1F)N1CCN(C(=O)C2CC2)CC1 [olaparib]
OVCAR-8 cells; OVCAR-8, BRCA2 or RAD51 siRNAs (FIG. 12B, 12D, 15)
  Sensitization to the agent by depletion of BRCA2 or RAD51: increased sensitivity; also recorded: did sensitize

## CN(C)c1cc(NC(=O)CNC(C)(C)C)c(O)c2c1C[C@H]1C[C@H]3[C@H](N(C)C)C(O)=C(C(N)=O)C(=O)[C@@]3(O)C(O)=C1C2=O [tigecycline]
OVCAR-8 cells
  Sensitivity of BRCA1-depleted cells to the agent versus control luciferase siRNA cells: sensitized
  Sensitization to the agent by NNMT overexpression: sensitizes
PEA1 cells
  Sensitivity of BRCA1-depleted cells to the agent versus control luciferase siRNA cells: sensitized
